Where a name gives a salt, the structure may show the parent alone.

T1 sequence (P26663 2420-3010): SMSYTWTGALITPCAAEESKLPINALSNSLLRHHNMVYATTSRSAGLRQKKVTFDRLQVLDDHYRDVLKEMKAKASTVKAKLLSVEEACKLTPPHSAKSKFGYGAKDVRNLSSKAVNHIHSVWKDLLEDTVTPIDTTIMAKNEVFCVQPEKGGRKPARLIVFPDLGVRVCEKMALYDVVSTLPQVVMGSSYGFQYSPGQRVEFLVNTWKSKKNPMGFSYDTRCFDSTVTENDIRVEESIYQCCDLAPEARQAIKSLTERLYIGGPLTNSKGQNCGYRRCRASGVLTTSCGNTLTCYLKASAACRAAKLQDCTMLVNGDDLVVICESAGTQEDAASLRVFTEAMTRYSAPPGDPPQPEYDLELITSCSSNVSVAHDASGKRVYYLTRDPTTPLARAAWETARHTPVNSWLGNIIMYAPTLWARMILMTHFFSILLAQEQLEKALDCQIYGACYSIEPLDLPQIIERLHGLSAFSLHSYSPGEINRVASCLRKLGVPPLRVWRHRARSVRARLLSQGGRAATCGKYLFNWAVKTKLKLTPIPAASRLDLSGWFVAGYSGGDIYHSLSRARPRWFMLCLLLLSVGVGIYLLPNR

The first experiment has as its target T1, HCV polymerase (Hepatitis C virus genotype 1b, UniProt P26663).
T1 construct: a region encoding NS5B (591 amino acids; J Virol 1991 Mar, 65(3), 1105-13) was amplified by PCR; 6 His (N); made in house; host or cells: Escherichia coli
Briefly: biochemical. The following applies: HCV polymerase inhibitory activity IC50.
What is called IC50 is the midpoint of a concentration-inhibition curve. `O=C1CCN(C(=O)c2ccc(-c3ccc(Cl)cc3)c(COc3ccc(-c4nc5cc(C(=O)O)ccc5n4C4CCCCC4)cc3)c2)CC1` [Example 328, 2-{4-[2-(4-chlorophenyl)-5-(4-oxopiperidinocarbonyl)-benzyloxy]phenyl}-1-cyclohexylbenzimidazole-5-carboxylic acid hydrochloride] showed an IC50 of 15 nM.

The same experiment, now with this note: read-out: HCV polymerase inhibitory activity IC50.
Consider `COc1ccc(-c2ccc(C(=O)O)cc2)c(COc2ccc(-c3nc4cc(C(=O)O)ccc4n3C3CCCCC3)cc2)c1` [Example 306, 2-{4-[2-(4-carboxyphenyl)-5-methoxybenzyloxy]phenyl}-1-cyclohexylbenzimidazole-5-carboxylic acid], for which the IC50 came to 13 nM.

As for `CN(C)C(=O)c1ccc(-c2ccc(C(N)=O)cc2)c(COc2ccc(-c3nc4cc(C(=O)O)ccc4n3C3CCCCC3)cc2)c1` [Example 307, 2-{4-[2-(4-carbamoylphenyl)-5-(dimethylcarbamoyl)benzyloxy]-phenyl}-1-cyclohexylbenzimidazole-5-carboxylic acid], the IC50 came to 22 nM.

Regarding `Nc1ccc(-c2ccc(Cl)cc2)c(COc2ccc(-c3nc4cc(C(=O)O)ccc4n3C3CCCCC3)cc2)c1` [Example 308, 2-{4-[5-amino-2-(4-chlorophenyl)benzyloxy]phenyl}-1-cyclohexylbenzimidazole-5-carboxylic acid], the IC50 is 23 nM.

Regarding `O=C(O)c1ccc(C(Oc2ccc(-c3nc4cc(C(=O)O)ccc4n3C3CCCCC3)c(F)c2)c2ccc(C(=O)O)cc2)cc1` [Example 312, 2-{4-[bis(4-carboxyphenyl)methoxy]-2-fluorophenyl}-1-cyclohexylbenzimidazole-5-carboxylic acid], the IC50 turned out to be 23 nM.

Regarding `CNC(=O)c1ccc(-c2ccc(Cl)cc2)c(COc2ccc(-c3nc4cc(C(=O)OC)ccc4n3C3CCCCC3)c(F)c2)c1` [Example 314, methyl 2-{4-[2-(4-chlorophenyl)-5-(methylcarbamoyl)benzyloxy]-2-fluorophenyl}-1-cyclohexylbenzimidazole-5-carboxylate], the IC50 came to 97 nM.

For the molecule `O=C(O)c1ccc2c(c1)nc(-c1ccc(OCc3cc(Cl)ccc3-c3ccncc3)cc1)n2C1CCCCC1` [Example 315, 2-{4-[5-chloro-2-(4-pyridyl)benzyloxy]phenyl}-1-cyclohexylbenzimidazole-5-carboxylic acid hydrochloride], the IC50 stood at 28 nM.

As to `O=C(O)c1ccc2c(c1)nc(-c1ccc(OCc3cc(C(=O)NCc4ccccc4)ccc3-c3ccc(Cl)cc3)cc1)n2C1CCCCC1` [Example 316, 2-{4-[2-(4-chlorophenyl)-5-(benzylcarbamoyl)benzyloxy]phenyl}-1-cyclohexylbenzimidazole-5-carboxylic acid hydrochloride], the IC50 came out at 22 nM.

For the molecule `O=C(O)c1ccc2c(c1)nc(-c1ccc(OCc3cc(C(=O)NCC4CCCCC4)ccc3-c3ccc(Cl)cc3)cc1)n2C1CCCCC1` [Example 317, 2-{4-[2-(4-chlorophenyl)-5-(cyclohexylmethylcarbamoyl)-benzyloxy]phenyl}-1-cyclohexylbenzimidazole-5-carboxylic acid hydrochloride], the IC50 stood at 32 nM.

As for `O=C(O)c1ccc2c(c1)nc(-c1ccc(OCc3cc(C(=O)NCc4ccncc4)ccc3-c3ccc(Cl)cc3)cc1)n2C1CCCCC1` [Example 318, 2-{4-[2-(4-chlorophenyl)-5-(4-pyridylmethylcarbamoyl)-benzyloxy]phenyl}-1-cyclohexylbenzimidazole-5-carboxylic acid dihydrochloride], the IC50 was found to be 12 nM.

For `CN(Cc1ccccc1)C(=O)c1ccc(-c2ccc(Cl)cc2)c(COc2ccc(-c3nc4cc(C(=O)O)ccc4n3C3CCCCC3)cc2)c1` [Example 319, 2-{4-[2-(4-chlorophenyl)-5-(N-benzyl-N-methylcarbamoyl)-benzyloxy]phenyl}-1-cyclohexylbenzimidazole-5-carboxylic acid hydrochloride], the IC50 came to 30 nM.

As for `CN(C)C(=O)c1ccc(-c2ccncc2)c(COc2ccc(-c3nc4cc(C(=O)O)ccc4n3C3CCCCC3)cc2)c1` [Example 320, 2-{4-[5-dimethylaminocarbonyl-2-(4-pyridyl)benzyloxy]phenyl}-1-cyclohexylbenzimidazole-5-carboxylic acid dihydrochloride], the IC50 was found to be 36 nM.

`CN1CCN(C(=O)c2ccc(-c3ccc(Cl)cc3)c(COc3ccc(-c4nc5cc(C(=O)O)ccc5n4C4CCCCC4)cc3)c2)CC1` [Example 321, 2-{4-[2-(4-chlorophenyl)-5-(4-methylpiperazin-1-ylcarbonyl)benzyloxy]phenyl}-1-cyclohexylbenzimidazole-5-carboxylic acid dihydrochloride]: the IC50 was 15 nM.

Turning to `O=C(O)c1ccc2c(c1)nc(-c1ccc(OCc3cc(C(=O)NCc4cccnc4)ccc3-c3ccc(Cl)cc3)cc1)n2C1CCCCC1` [Example 322, 2-{4-[2-(4-chlorophenyl)-5-{N-(3-pyridylmethyl)carbamoyl}-benzyloxy]phenyl}-1-cyclohexylbenzimidazole-5-carboxylic acid dihydrochloride], the IC50 is 16 nM.

In the case of `O=C(O)c1ccc2c(c1)nc(-c1ccc(OCc3cc(C(=O)NCc4ccccn4)ccc3-c3ccc(Cl)cc3)cc1)n2C1CCCCC1` [Example 323, 2-{4-[2-(4-chlorophenyl)-5-{N-(2-pyridylmethyl)carbamoyl}-benzyloxy]phenyl}-1-cyclohexylbenzimidazole-5-carboxylic acid dihydrochloride], the IC50 amounted to 18 nM.

Regarding `O=C(O)c1ccc2c(c1)nc(-c1ccc(OCc3cc(C(=O)NC4CCCCC4)ccc3-c3ccc(Cl)cc3)cc1)n2C1CCCCC1` [Example 324, 2-{4-[2-(4-chlorophenyl)-5-(cyclohexylcarbamoyl)benzyloxy]-phenyl}-1-cyclohexylbenzimidazole-5-carboxylic acid hydrochloride], the IC50 worked out at 27 nM.

For the molecule `O=C(O)c1ccc2c(c1)nc(-c1ccc(OCc3cc(C(=O)NCCc4ccncc4)ccc3-c3ccc(Cl)cc3)cc1)n2C1CCCCC1` [Example 325, 2-{4-[2-(4-chlorophenyl)-5-(2-pyridin-4-ylethylcarbamoyl)-benzyloxy]phenyl}-1-cyclohexylbenzimidazole-5-carboxylic acid dihydrochloride], the IC50 is 19 nM.

Turning to `CN(C)C(=O)c1ccc(C(Oc2ccc(-c3nc4cc(C(=O)O)ccc4n3C3CCCCC3)c(F)c2)c2ccc(F)cc2)cc1` (stereo not shown) [Example 326, 2-{4-[(4-fluorophenyl){4-(dimethylaminocarbonyl)phenyl}methoxy]-2-fluorophenyl}-1-cyclohexylbenzimidazole-5-carboxylic acid], the IC50 came out at 18 nM.

In the case of `O=C(O)c1ccc(C(Oc2ccc(-c3nc4cc(C(=O)O)ccc4n3C3CCCCC3)c(F)c2)c2ccc(F)cc2)cc1` (stereo not shown) [Example 327, 2-{4-[(4-fluorophenyl)(4-carboxyphenyl)methoxy]-2-fluorophenyl}-1-cyclohexylbenzimidazole-5-carboxylic acid], the IC50 was found to be 19 nM.

In the case of `O=C(O)c1ccc2c(c1)nc(-c1ccc(OCc3cc(O)ccc3-c3ccc(Cl)cc3)cc1)n2C1CCCCC1` [Example 329, 2-{4-[2-(4-chlorophenyl)-5-hydroxybenzyloxy]phenyl}-1-cyclohexylbenzimidazole-5-carboxylic acid hydrochloride], the IC50 is 47 nM.

For `CC(C)NC(=O)c1ccc(-c2ccc(Cl)cc2)c(COc2ccc(-c3nc4cc(C(=O)O)ccc4n3C3CCCCC3)cc2)c1` [Example 330, 2-{4-[2-(4-chlorophenyl)-5-(isopropylcarbamoyl)benzyloxy]phenyl}-1-cyclohexylbenzimidazole-5-carboxylic acid hydrochloride], the IC50 stood at 11 nM.

Regarding `CC(C)N(C)C(=O)c1ccc(-c2ccc(Cl)cc2)c(COc2ccc(-c3nc4cc(C(=O)O)ccc4n3C3CCCCC3)cc2)c1` [Example 331, 2-{4-[2-(4-chlorophenyl)-5-(N-isopropyl-N-methylcarbamoyl)-benzyloxy]phenyl}-1-cyclohexylbenzimidazole-5-carboxylic acid hydrochloride], the IC50 was found to be 17 nM.

Take `O=C(O)c1ccc2c(c1)nc(-c1ccc(OCc3cc(C(=O)Nc4ccccc4)ccc3-c3ccc(Cl)cc3)cc1)n2C1CCCCC1` [Example 332, 2-{4-[2-(4-chlorophenyl)-5-(phenylcarbamoyl)benzyloxy]phenyl}-1-cyclohexylbenzimidazole-5-carboxylic acid hydrochloride]: the IC50 was 23 nM.

As to `COC1CCN(C(=O)c2ccc(-c3ccc(Cl)cc3)c(COc3ccc(-c4nc5cc(C(=O)O)ccc5n4C4CCCCC4)cc3)c2)CC1` [Example 333, 2-{4-[2-(4-chlorophenyl)-5-(4-methoxypiperidinocarbonyl)-benzyloxy]phenyl}-1-cyclohexylbenzimidazole-5-carboxylic acid hydrochloride], the IC50 stood at 16 nM.

On to `O=C(O)c1ccc2c(c1)nc(-c1ccc(OCc3cc(OCCCO)ccc3-c3ccc(Cl)cc3)cc1)n2C1CCCCC1` [Example 334, 2-{4-[2-(4-chlorophenyl)-5-(3-hydroxypropyloxy)benzyloxy]phenyl}-1-cyclohexylbenzimidazole-5-carboxylic acid], for which the IC50 was determined as 16 nM.

Regarding `O=C(O)c1ccc2c(c1)nc(-c1ccc(OCc3cc(OCCO)ccc3-c3ccc(Cl)cc3)cc1)n2C1CCCCC1` [Example 335, 2-{4-[2-(4-chlorophenyl)-5-(2-hydroxyethoxy)benzyloxy]phenyl}-1-cyclohexylbenzimidazole-5-carboxylic acid hydrochloride], the IC50 stood at 13 nM.

For `CC1CCN(C(=O)c2ccc(-c3ccc(Cl)cc3)c(COc3ccc(-c4nc5cc(C(=O)O)ccc5n4C4CCCCC4)cc3)c2)CC1` [Example 341, 2-{4-[2-(4-chlorophenyl)-5-(4-methylpiperidin-1-ylcarbonyl)benzyloxy]phenyl}-1-cyclohexylbenzimidazole-5-carboxylic acid hydrochloride], the IC50 was found to be 25 nM.

With `CC(=O)c1ccc(-c2ccc(Cl)cc2)c(COc2ccc(-c3nc4cc(C(=O)O)ccc4n3C3CCCCC3)cc2)c1` [Example 342, 2-{4-[5-acetyl-2-(4-chlorophenyl)benzyloxy]phenyl}-1-cyclohexylbenzimidazole-5-carboxylic acid hydrochloride], the IC50 came out at 15 nM.

Source of the values: patent US20040082635A1, “Fused cyclic compounds and medicinal use thereof” (priority 2001, published 2004).
